What was measured:
DENV (serotype 2) = test: microbe, parasite or virus in culture; type: cell-based, Dengue virus serotype 2; details: for EC50: Dengue virus, Vero B, read-out: Dengue EC50
in vitro [1] = test: in vitro
YFV = test: microbe, parasite or virus in culture; type: cell-based, yellow fever virus; details: for EC50: Yellow fever virus, Vero B, read-out: Yellow fever EC50
in vitro [2] = details: chlorocebus aethiops

Compound | Dengue EC50 (DENV (serotype 2)) | Dengue SI (DENV (serotype 2)) | EC50 (DENV (serotype 2)) | CC50 (in vitro [1]; chlorocebus aethiops) | fold increase in DENV activity for the methyl congener (DENV (serotype 2)) | CC50 (in vitro [1]; green monkey) | EC50 (YFV) | CC50 (in vitro [2]; Yellow fever CC50) | Yellow fever SI (YFV) | fold loss in DENV inhibitory activity (DENV (serotype 2)) | fold more inhibitory against dengue virus (DENV (serotype 2)) | CC50 (in vitro [2]; Yellow fever CC50 (visual)) | CC50 at 168 h (in vitro [1]; chlorocebus aethiops) | CC50 at 168 h (in vitro [2]; Yellow fever CC50) | fold increase of DENV inhibitory properties (DENV (serotype 2))
Cc1ccc(NC(=O)c2nccnc2C(=O)Nc2ccc(C)cc2-c2ccc(C)s2)cc1 [6f, N^2-(4-methyl-2-(5-methylthiophen-2-yl)phenyl)-N^3-(p-tolyl)pyrazine-2,3-dicarboxamide] | complete loss of DENV inhibitory activity | 1 | > 113 µM | > 113 µM | – | – | – | – | – | – | – | – | – | – | –
Cc1ccc(NC(=O)c2nccnc2C(=O)Nc2ccc(C)cc2-c2cccs2)cc1 [6d, N^2-(4-methyl-2-(thiophen-2-yl)phenyl)-N^3-(p-tolyl)pyrazine-2,3-dicarboxamide] | – | >235 | 0.5 µM | > 117 µM | 10 fold | > 116 µM | – | – | – | – | – | – | – | – | –
Cc1ccc(NC(=O)c2nccnc2C(=O)Nc2ccc(F)cc2)c(-c2cccs2)c1 [6c, N^2-(4-fluorophenyl)-N^3-(4-methyl-2-(thiophen-2-yl)phenyl)pyrazine-2,3-dicarboxamide] | – | >25 | 4.6 µM | > 116 µM | – | – | 23 µM | > 116 µM | – | – | – | – | – | – | –
Cc1ccc(NC(=O)c2ccccc2C(=O)Nc2ccc(F)cc2)c(-c2cccs2)c1 [7b, N^1-(4-fluorophenyl)-N^2-(4-methyl-2-(thiophen-2-yl)phenyl)phthalamide] | – | >29 | 4 µM | > 117 µM | – | – | 23.2 µM | > 37 µM | >1.6 | – | – | – | – | – | –
Cc1ccc(NC(=O)c2nccnc2C(=O)Nc2ccc(F)cc2)c(-c2ccc(C)s2)c1 [6e, N^2-(4-fluorophenyl)-N^3-(4-methyl-2-(5-methylthiophen-2-yl)phenyl)pyrazine-2,3-dicarboxamide] | complete loss of DENV inhibitory activity | 1 | > 112 µM | > 112 µM | – | – | – | – | – | – | – | – | – | – | –
Cc1ccc(NC(=O)c2ccccc2C(=O)Nc2ccc(C)cc2-c2cc(C)n[nH]2)cc1 [7c, N^1-(4-methyl-2-(3-methyl-1H-pyrazol-5-yl)phenyl)-N^2-(p-tolyl)phthalamide] | – | >4 | 29 µM | > 117 µM | – | – | – | – | – | 60 fold | – | – | – | – | –
Cc1ccc(NC(=O)c2ccccc2C(=O)Nc2ccc(F)cc2)c(-c2cc(C)n[nH]2)c1 [7a, N^1-(4-fluorophenyl)-N^2-(4-methyl-2-(3-methyl-1H-pyrazol-5-yl)phenyl)phthal-amide] | – | >235 | 0.5 µM | > 117 µM | – | – | – | – | – | – | 5 fold | – | – | – | –
Cc1ccc(NC(=O)c2ccccc2C(=O)Nc2ccccc2-c2cc(C)n[nH]2)cc1 [7n, N^1-(2-(3-methyl-1H-pyrazol-5-yl)phenyl)-N^2-(p-tolyl)phthalamide] | – | >9 | 14.1 µM | > 122 µM | – | – | 5.8 µM | > 122 µM | >21 | – | – | – | – | – | –
Cc1ccc(NC(=O)c2ccccc2NC(=O)c2ccc(F)cc2)c(-c2ccc(C)s2)c1 [13b, 2-(4-fluorobenzamido)-N-(4-methyl-2-(5-methylthiophen-2-yl)phenyl)benzamide] | – | >35 | 3.2 µM | > 113 µM | – | – | > 113 µM | > 113 µM | 1 | – | – | 12.5 µM | – | – | –
O=C(NCc1ccc(-c2ccsc2)cc1)c1ccccc1C(=O)Nc1ccc(F)cc1 [7k, N^1-(4-fluorophenyl)-N^2-(4-(thiophen-3-yl)benzyl)phthalamide] | – | >7 | 16 µM | > 116 µM | – | – | 7.4 µM | > 117 µM | >16 | – | – | – | – | – | –
Cc1ccc(NC(=O)c2ccccc2C(=O)NCc2ccc(-c3ccsc3)cc2)cc1 [7l, N^1-(4-(thiophen-3-yl)benzyl)-N^2-(p-tolyl)phthalamide] | – | >8 | 13.8 µM | > 117 µM | – | – | 3.3 µM | > 117 µM | >35 | – | – | – | – | – | –
Cc1ccc(NC(=O)c2ccccc2C(=O)Nc2ccc(F)cc2)c(-c2ccsc2)c1 [7h, N^1-(4-fluorophenyl)-N^2-(4-methyl-2-(thiophen-3-yl)phenyl)phthalamide] | – | 16 | 3 µM | – | – | – | 6.5 µM | – | 10 | – | – | – | 47 µM | 67 µM | –
Cc1cc(-c2ccccc2NC(=O)c2nccnc2C(=O)Nc2ccc(F)cc2)[nH]n1 [6m, N^2-(4-fluorophenyl)-N^3-(2-(3-methyl-1H-pyrazol-5-yl)phenyl)pyrazine-2,3-dicarboxamide] | – | >55 | 2.2 µM | > 120 µM | – | – | 7.8 µM | – | 10 | – | – | – | – | 77 µM | 12 fold
Cc1ccc(NC(=O)c2ccccc2NC(=O)c2ccc(F)cc2)c(-c2ccncc2)c1 [13c, 2-(4-fluorobenzamido)-N-(4-methyl-2-(pyridin-4-yl)phenyl)benzamide] | – | >7 | 17 µM | > 117 µM | – | – | > 117 µM | > 50 µM | 1 | – | – | 30 µM | – | – | –

From paper PMC4999056 (European Journal of Medicinal Chemistry, 2016)
